Series [1] is described as follows: Hydrophobicity, log P of the compound in octanol-water by shaking-flask method. It is filed as physicochemical.
In another series the test system is Periplaneta americana. The series is described as follows: Toxic effect in Periplaneta americana (American cockroach) assessed as paralyzed insects after 24 hr of abdomen compound injection by insecticidal assay. It is filed as functional.
For series [2], the target named is T1, Nicotinic acetylcholine receptor alpha8 subunit (Periplaneta americana) (UniProt H6TY12).
T1 sequence (whole entry): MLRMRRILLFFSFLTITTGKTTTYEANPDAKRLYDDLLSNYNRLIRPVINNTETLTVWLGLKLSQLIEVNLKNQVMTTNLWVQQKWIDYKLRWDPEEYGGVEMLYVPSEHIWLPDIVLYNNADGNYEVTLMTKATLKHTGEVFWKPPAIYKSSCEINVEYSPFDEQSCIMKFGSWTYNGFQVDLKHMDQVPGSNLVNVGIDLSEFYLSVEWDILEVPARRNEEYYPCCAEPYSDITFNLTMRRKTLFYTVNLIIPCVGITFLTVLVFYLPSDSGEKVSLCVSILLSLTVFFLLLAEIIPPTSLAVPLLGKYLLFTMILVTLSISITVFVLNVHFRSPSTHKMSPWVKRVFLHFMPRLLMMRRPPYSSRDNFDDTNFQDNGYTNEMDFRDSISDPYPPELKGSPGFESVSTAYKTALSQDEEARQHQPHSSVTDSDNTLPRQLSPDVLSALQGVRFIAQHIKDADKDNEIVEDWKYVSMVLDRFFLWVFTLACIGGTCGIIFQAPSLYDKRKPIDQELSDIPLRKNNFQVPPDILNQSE
As to the kind of experiment: Neuroblocking activity in Periplaneta americana (American cockroach) nicotinic acetylcholine receptor in abdominal fifth and sixth ganglia nerve assessed as neuroblocking concentration by neurophysiological test.

The record followed here is ChEMBL document CHEMBL3045233, “Insecticidal and neuroblocking potencies of variants of the imidazolidine moiety of imidacloprid-related neonicotinoids and the relationship to partition coefficient and charge density on the pharmacophore” (J Agric Food Chem, 2007).

In general, logP refers to a log measure of how a compound divides between an organic and an aqueous phase. A higher logP goes with a more lipophilic compound.

`O=[N+]([O-])/N=C1\SCCN1Cc1cnc(Cl)s1` returned a logP in series [1] of 0.8. Further, the “log(1/MLD)” value with Periplaneta americana is on record as 7.42. Further, in series [2], the log(1/BC) worked out at 6.
On the same counts, the results for `O=[N+]([O-])/C=C1\CCCN1Cc1ccc(Cl)nc1` are 0.45, 9.84 and 6.43.
Turning to `O=[N+]([O-])/N=c1\ccccn1Cc1cnc(Cl)s1`, the logP in series [1] came out at 0.67. Besides, the “log(1/MLD)” value in the series with Periplaneta americana came out at 8.92. Moreover, the log(1/BC) in series [2] was determined as 5.75.
Consider `O=[N+]([O-])/N=C1\NCCN1Cc1ccc(Cl)nc1` [IMIDACLOPRID], for which, in the series with Periplaneta americana, the “log(1/MLD)” value amounted to 8.96. For the same compound, in series [2], the log(1/BC) is 5.64.
With `CN1CCN(Cc2ccc(Cl)nc2)/C1=C/[N+](=O)[O-]`, in series [1], the logP is -0.84. The “log(1/MLD)” value with Periplaneta americana came out at 7.77. In addition, the log(1/BC) in series [2] worked out at 3.84.
`O=[N+]([O-])/N=c1\[nH]ccn1Cc1cnc(Cl)s1` returned a logP in series [1] of 0.27. Moreover, the “log(1/MLD)” value in the series on Periplaneta americana came out at 8.12. Further, the log(1/BC) in series [2] amounted to 4.61.
On the same counts, the results for `CN1CCN(Cc2ccc(Cl)nc2)/C1=N/[N+](=O)[O-]` are -0.07, 8.53 and 3.81.
In the case of `O=[N+]([O-])NC1=NCCN1Cc1ccc(Cl)nc1` [IMIDACLOPRID], the logP in series [1] stood at 0.53.
In series [1], `O=[N+]([O-])/C=C1\NCCN1Cc1ccc(Cl)nc1` showed a logP of -0.18. Besides, the “log(1/MLD)” value in the series on Periplaneta americana was found to be 9.19. The log(1/BC) in series [2] was 5.02.
Turning to `O=[N+]([O-])/C=C1\SCCN1Cc1ccc(Cl)nc1`, the logP in series [1] stood at 0.47. In the series on Periplaneta americana, the “log(1/MLD)” value is listed as 9.76. The log(1/BC) in series [2] was 6.19.
For `O=[N+]([O-])/N=C1\NCCCN1Cc1ccc(Cl)nc1` the same measures were 0.57, 8.22 and 5.35.
On the same counts, the results for `O=[N+]([O-])/N=c1\sccn1Cc1ccc(Cl)nc1` are 0.53, 8.85 and 5.68.
Take `O=[N+]([O-])/C=C1\NCCN1Cc1cnc(Cl)s1`: the lipophilicity (logP) in series [1] worked out at 0.03. Also, in the series with Periplaneta americana, the “log(1/MLD)” value was 9.34. The log(1/BC) in series [2] was found to be 5.73.
For `O=[N+]([O-])/N=c1\ccccn1Cc1ccc(Cl)nc1` the same measures were 0.51, 8.88 and 5.09.
On the same counts, the results for `O=[N+]([O-])/N=c1\sccn1Cc1cnc(Cl)s1` are 0.96, 7.85 and 5.79.
For `O=[N+]([O-])Nc1nccn1Cc1ccc(Cl)nc1` [DEHYDROIMIDACLOPRID], in series [1], the logP is 0.33. In the series on Periplaneta americana, the “log(1/MLD)” value was determined as 7.72. Further, the log(1/BC) in series [2] was 4.31.
The compound `O=[N+]([O-])/N=C1\NCCN1Cc1cnc(Cl)s1` [IMIDACLOTHIZ] showed a logP in series [1] of 0.61. The “log(1/MLD)” value with Periplaneta americana is reported as 8.42. The log(1/BC) in series [2] stood at 5.97.
As to `O=[N+]([O-])/C=C1\CCCN1Cc1cnc(Cl)s1`, the “log(1/MLD)” value with Periplaneta americana is on record as 8.96. Besides, in series [2], the log(1/BC) was 6.31.
